From the kinase profiling compilation of Christmann-Franck et al. (2016)

Legend:
Test in all cases: TR FRET
Settings in all cases: compound 0.01 µM
[1] = tested on: FLT3 (human), P36888 [R834Q]
[2] = molecular target: TAOK3 (human) (UniProt Q9H2K8)
[3] = molecular target: BLK (human) (UniProt P51451)
[4] = molecular target: ULK1 (human) (UniProt O75385)
[5] = molecular target: EPHA8 (human) (UniProt P29322)
[6] = molecular target: ANKK1 (human) (UniProt Q8NFD2)
[7] = tested on: CPK1 (P.falciparum)
[8] = molecular target: YES1 (human) (UniProt P07947)
[9] = molecular target: PDGFRA (human) (UniProt P16234)
[10] = tested on: FLT3 (human), P36888 [N841I]
[11] = tested on: FLT3 (human), P36888 [K663Q]
[12] = molecular target: TNK1 (human) (UniProt Q13470)
[13] = molecular target: MAP4K2 (human) (UniProt Q12851)
[14] = tested on: KIT (human), P10721 [V559D]
[15] = molecular target: KIT (human) (UniProt P10721)
[16] = molecular target: STK10 (human) (UniProt O94804)
[17] = molecular target: TIE1 (human) (UniProt P35590)
[18] = molecular target: MAP3K2 (human) (UniProt Q9Y2U5)
[19] = molecular target: LYN (human) (UniProt P07948)
[20] = molecular target: CSF1R (human) (UniProt P07333)
[21] = molecular target: NTRK3 (human) (UniProt Q16288)
[22] = tested on: FLT3 (human), P36888 [D835H]
[23] = molecular target: MAP3K7 (human) (UniProt O43318)
[24] = molecular target: LCK (human) (UniProt P06239)
Sequence of LCK (human) (P06239 whole entry, looked up): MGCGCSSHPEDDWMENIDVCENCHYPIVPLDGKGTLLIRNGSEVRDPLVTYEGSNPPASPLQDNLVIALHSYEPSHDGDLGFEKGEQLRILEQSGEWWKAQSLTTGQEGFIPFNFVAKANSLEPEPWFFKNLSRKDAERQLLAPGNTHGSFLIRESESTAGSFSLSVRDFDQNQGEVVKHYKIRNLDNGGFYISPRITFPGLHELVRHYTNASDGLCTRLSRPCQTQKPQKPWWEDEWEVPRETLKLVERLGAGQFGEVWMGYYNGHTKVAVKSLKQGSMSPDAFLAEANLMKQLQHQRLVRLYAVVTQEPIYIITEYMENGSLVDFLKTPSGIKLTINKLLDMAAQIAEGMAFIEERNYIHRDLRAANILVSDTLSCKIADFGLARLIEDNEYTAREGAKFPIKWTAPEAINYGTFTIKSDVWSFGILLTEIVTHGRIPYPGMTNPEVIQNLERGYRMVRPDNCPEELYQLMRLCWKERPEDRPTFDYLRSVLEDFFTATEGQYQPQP

[25] = tested on: EIF2AK4 KD2 (human), Q9P2K8 [S808G]
[26] = molecular target: NTRK2 (human) (UniProt Q16620)
[27] = tested on: RET (human), P07949 [M918T]
Sequence of RET (human), P07949 [M918T] (P07949 whole entry M918T, looked up): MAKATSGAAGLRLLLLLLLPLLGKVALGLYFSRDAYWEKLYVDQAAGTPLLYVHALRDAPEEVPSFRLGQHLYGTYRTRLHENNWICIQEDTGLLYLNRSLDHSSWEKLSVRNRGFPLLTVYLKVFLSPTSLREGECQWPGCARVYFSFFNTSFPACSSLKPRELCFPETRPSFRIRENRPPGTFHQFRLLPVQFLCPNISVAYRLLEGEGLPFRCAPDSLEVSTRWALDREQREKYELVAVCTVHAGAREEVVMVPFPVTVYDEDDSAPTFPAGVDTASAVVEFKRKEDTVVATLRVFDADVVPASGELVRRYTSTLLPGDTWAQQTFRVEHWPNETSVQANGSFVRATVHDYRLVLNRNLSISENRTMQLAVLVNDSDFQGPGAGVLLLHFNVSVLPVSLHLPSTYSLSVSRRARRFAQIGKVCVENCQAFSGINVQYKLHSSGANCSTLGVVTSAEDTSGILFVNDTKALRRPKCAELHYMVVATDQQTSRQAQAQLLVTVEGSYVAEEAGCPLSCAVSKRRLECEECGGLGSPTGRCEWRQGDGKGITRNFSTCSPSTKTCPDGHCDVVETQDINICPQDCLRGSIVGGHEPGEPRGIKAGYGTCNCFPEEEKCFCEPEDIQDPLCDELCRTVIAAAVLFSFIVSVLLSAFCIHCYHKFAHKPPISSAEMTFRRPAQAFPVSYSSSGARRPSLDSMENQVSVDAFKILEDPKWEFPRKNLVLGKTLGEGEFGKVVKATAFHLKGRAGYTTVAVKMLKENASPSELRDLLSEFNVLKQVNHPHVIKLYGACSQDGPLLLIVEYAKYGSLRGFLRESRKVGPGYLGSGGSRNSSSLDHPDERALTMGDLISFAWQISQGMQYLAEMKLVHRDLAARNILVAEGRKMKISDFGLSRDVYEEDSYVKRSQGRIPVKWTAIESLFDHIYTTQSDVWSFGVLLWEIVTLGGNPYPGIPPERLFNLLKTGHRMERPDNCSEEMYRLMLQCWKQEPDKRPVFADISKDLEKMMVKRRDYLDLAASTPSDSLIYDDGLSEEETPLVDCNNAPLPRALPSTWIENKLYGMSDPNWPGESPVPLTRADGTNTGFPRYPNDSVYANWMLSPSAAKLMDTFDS

[28] = molecular target: MUSK (human) (UniProt O15146)
[29] = molecular target: FLT3 (human) (UniProt P36888)
[30] = molecular target: FGFR1 (human) (UniProt P11362)
[31] = tested on: FLT3 (human), P36888 [D835Y]
[32] = molecular target: HCK (human) (UniProt P08631)
[33] = molecular target: EPHA3 (human) (UniProt P29320)
[34] = molecular target: BRAF (human) (UniProt P15056)
[35] = molecular target: CSK (human) (UniProt P41240)
[36] = molecular target: MAP3K3 (human) (UniProt Q99759)
[37] = molecular target: MAP4K1 (human) (UniProt Q92918)
[38] = molecular target: CHUK (human) (UniProt O15111)
[39] = molecular target: JAK3 JH1 catalytic (human) (UniProt P52333)
Sequence of JAK3 JH1 catalytic (human) (P52333 whole entry, looked up): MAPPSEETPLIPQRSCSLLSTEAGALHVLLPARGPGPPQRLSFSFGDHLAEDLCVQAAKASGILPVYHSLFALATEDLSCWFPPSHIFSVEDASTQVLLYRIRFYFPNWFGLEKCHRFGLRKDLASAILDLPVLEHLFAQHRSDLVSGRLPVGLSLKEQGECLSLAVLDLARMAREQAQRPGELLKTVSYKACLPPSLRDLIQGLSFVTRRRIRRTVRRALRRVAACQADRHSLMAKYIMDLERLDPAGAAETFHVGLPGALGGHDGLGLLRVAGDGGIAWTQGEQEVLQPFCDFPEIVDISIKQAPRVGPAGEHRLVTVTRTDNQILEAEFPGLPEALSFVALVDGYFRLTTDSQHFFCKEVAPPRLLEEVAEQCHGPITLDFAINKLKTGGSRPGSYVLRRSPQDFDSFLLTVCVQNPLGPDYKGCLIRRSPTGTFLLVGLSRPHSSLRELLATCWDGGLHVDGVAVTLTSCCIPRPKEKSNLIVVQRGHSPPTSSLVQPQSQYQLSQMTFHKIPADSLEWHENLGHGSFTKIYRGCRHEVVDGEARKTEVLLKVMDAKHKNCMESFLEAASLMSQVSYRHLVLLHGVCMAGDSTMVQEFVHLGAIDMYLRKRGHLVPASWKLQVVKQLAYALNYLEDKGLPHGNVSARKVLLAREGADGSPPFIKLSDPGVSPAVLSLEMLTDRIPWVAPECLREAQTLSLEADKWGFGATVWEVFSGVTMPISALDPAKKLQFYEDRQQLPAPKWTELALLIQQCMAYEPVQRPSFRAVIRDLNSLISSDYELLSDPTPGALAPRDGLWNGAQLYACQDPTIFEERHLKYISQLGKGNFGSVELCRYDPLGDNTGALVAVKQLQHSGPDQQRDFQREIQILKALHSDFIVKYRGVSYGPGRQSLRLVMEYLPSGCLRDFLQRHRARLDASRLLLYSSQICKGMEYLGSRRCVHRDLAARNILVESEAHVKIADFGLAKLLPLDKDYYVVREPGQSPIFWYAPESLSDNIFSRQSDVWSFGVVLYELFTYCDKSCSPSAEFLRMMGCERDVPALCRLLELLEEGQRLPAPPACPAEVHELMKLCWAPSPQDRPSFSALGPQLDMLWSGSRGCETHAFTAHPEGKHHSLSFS

[40] = molecular target: MAP2K5 (human) (UniProt Q13163)
[41] = molecular target: PDGFRB (human) (UniProt P09619)
[42] = molecular target: EPHA4 (human) (UniProt P54764)
[43] = tested on: KIT (human), P10721 [L576P]
[44] = molecular target: SGK3 (human) (UniProt Q96BR1)
[45] = molecular target: DDR1 (human) (UniProt Q08345)
[46] = molecular target: BMX (human) (UniProt P51813)
[47] = molecular target: DDR2 (human) (UniProt Q16832)
[48] = tested on: BRAF (human), P15056 [V600E]
[49] = molecular target: FGR (human) (UniProt P09769)
Sequence of FGR (human) (P09769 whole entry, looked up): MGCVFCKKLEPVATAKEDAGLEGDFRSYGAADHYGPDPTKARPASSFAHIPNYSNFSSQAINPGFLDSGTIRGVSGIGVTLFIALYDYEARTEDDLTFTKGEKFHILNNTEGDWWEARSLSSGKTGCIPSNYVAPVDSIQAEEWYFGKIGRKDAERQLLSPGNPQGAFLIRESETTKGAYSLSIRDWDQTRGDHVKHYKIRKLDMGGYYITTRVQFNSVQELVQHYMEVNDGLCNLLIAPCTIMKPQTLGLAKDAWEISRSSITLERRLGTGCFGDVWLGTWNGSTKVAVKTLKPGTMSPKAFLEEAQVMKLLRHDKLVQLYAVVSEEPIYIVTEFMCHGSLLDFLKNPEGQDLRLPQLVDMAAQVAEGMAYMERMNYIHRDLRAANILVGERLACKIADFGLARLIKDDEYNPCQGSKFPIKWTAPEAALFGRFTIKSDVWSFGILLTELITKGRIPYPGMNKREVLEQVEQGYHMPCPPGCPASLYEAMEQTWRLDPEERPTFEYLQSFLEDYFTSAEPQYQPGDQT

[50] = molecular target: TEK (human) (UniProt Q02763)
[51] = tested on: RET (human), P07949 [V804M]
[52] = molecular target: IKBKB (human) (UniProt O14920)
[53] = molecular target: MLTK (human) (UniProt Q9NYL2)
[54] = molecular target: RET (human) (UniProt P07949)
Sequence of RET (human) (P07949 whole entry, looked up): as the sequence (P07949 whole entry M918T, looked up) above, with T918M counted along it

[55] = tested on: KIT (human), P10721 [V559D/T670I]
[56] = molecular target: TNIK (human) (UniProt Q9UKE5)
[57] = molecular target: NTRK1 (human) (UniProt P04629)
[58] = molecular target: MAPK14 (human) (UniProt Q16539)
[59] = molecular target: SRC (human) (UniProt P12931)

Sequence of EPHA8 (human) (P29322 whole entry, looked up): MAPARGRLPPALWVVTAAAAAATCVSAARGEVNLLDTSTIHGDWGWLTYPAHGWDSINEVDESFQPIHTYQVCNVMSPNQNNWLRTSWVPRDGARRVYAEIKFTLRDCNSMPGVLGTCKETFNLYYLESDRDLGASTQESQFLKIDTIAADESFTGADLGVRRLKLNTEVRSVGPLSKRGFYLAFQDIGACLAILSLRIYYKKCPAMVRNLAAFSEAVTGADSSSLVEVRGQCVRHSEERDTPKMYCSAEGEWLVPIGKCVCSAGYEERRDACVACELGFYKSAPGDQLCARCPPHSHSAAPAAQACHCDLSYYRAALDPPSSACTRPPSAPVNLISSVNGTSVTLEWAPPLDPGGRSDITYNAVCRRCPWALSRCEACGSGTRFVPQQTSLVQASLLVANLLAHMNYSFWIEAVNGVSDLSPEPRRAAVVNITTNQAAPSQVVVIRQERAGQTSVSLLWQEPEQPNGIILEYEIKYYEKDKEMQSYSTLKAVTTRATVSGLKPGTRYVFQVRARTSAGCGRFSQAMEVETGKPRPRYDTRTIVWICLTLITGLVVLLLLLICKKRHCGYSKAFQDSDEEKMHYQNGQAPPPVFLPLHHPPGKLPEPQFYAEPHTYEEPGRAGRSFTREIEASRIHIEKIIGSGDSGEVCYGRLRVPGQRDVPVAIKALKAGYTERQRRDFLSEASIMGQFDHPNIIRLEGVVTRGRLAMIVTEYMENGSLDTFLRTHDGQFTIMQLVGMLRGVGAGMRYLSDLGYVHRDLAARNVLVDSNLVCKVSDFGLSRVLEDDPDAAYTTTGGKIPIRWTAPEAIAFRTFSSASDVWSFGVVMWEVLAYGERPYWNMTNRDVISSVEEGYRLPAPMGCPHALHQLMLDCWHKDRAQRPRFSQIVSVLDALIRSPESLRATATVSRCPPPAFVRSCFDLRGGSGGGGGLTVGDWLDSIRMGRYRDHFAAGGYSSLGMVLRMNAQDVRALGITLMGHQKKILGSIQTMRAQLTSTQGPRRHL
Sequence of ANKK1 (human) (Q8NFD2 whole entry, looked up): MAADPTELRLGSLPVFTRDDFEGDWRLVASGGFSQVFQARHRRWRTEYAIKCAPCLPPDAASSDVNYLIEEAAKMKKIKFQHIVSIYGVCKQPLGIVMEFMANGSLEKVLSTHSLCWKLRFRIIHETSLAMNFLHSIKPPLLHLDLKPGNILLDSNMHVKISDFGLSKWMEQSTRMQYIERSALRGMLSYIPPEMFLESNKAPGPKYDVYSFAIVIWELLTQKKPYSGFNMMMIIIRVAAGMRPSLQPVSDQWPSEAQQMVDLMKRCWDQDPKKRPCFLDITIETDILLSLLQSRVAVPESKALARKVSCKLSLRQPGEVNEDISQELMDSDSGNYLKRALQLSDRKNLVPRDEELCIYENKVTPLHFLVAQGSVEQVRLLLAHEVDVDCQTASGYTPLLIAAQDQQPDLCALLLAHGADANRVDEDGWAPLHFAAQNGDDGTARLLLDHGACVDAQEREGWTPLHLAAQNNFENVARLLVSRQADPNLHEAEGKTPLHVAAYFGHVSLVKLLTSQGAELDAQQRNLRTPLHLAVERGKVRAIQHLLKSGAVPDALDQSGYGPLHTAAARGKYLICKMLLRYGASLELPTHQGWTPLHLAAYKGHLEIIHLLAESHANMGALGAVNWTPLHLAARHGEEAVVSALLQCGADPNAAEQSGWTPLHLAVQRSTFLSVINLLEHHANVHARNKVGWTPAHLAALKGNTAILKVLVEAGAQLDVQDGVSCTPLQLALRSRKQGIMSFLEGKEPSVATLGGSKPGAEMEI

Cc1ccc(C(=O)Nc2ccc(CN3CCN(C)CC3)c(C(F)(F)F)c2)cc1C#Cc1cnc2[nH]ncc2c1
inhibition [1]: 77% | inhibition [2]: 92.1% | inhibition [3]: 97.6% | inhibition [4]: 51% | inhibition [5]: 89% | inhibition [6]: 55% | inhibition [7]: 79% | inhibition [8]: 70% | inhibition [9]: 76% | inhibition [10]: 97.1% | inhibition [11]: 95% | inhibition [12]: 83% | inhibition [13]: 86% | inhibition [14]: 98.6% | inhibition [15]: 97.2% | inhibition [16]: 99.8% | inhibition [17]: 82% | inhibition [18]: 63% | inhibition [19]: 83% | inhibition [20]: 97.8% | inhibition [21]: 82% | inhibition [22]: 82% | inhibition [23]: 96.2% | inhibition [24]: 96.8% | inhibition [25]: 54% | inhibition [26]: 86% | inhibition [27]: 90.6% | inhibition [28]: 78% | inhibition [29]: 97.6% | inhibition [30]: 84% | inhibition [31]: 58% | inhibition [32]: 95.8% | inhibition [33]: 89% | inhibition [34]: 78% | inhibition [35]: 97.8% | inhibition [36]: 90% | inhibition [37]: 59% | inhibition [38]: 86% | inhibition [39]: 67% | inhibition [40]: 94.8% | inhibition [41]: 90.5% | inhibition [42]: 52% | inhibition [43]: 97.8% | inhibition [44]: 52% | inhibition [45]: 99.8% | inhibition [46]: 51% | inhibition [47]: 64% | inhibition [48]: 93.6% | inhibition [49]: 81% | inhibition [50]: 97.2% | inhibition [51]: 65% | inhibition [52]: 90% | inhibition [53]: 96.2% | inhibition [54]: 85% | inhibition [55]: 91.9% | inhibition [56]: 81% | inhibition [57]: 100% | inhibition [58]: 59% | inhibition [59]: 76%
